The values that follow come from PubChem BioAssay (NCI).

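Compound exposure: 48 hours, 5 concentrations, 96-well plates. At the GI50, growth is halved. The concentration for full growth arrest is given as TGI.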 Some results are limits rather than exact numbers.

Among the test systems are SK-MEL-28 melanoma; HL-60(TB) leukemia; SR leukemia; NCI-H23 lung; MALME-3M melanoma; HCC-2998 colon; OVCAR-3 ovarian; NCI-H522 lung; TK-10 renal.
Experiment in all cases: NCI anticancer screen, dose series, 48 h

Regarding `Cc1ccccc1NC(=O)C(=O)C(C#N)c1ccccc1C` (stereo not drawn), the TGI in the experiment on SK-MEL-28 melanoma, in the experiment with HL-60(TB) leukemia, in the experiment with SR leukemia, with NCI-H23 lung, in the experiment with MALME-3M melanoma and with HCC-2998 colon was greater than 100 µM each time. The TGI in the experiment with OVCAR-3 ovarian, with NCI-H522 lung and in the experiment on TK-10 renal was greater than 100 µM each time.
As for `C=C1CCC2[C@@H](CCC3[C@]2(C)CCC[C@]3(C)C(=O)OC)C1CC=O` (stereo partly drawn), the TGI in the experiment with SK-MEL-28 melanoma was found to be 30.7 µM; in the experiment on HL-60(TB) leukemia, 40.1 µM; in the experiment with NCI-H23 lung, 35.4 µM; in the experiment on MALME-3M melanoma, 37.5 µM; with OVCAR-3 ovarian, 27.7 µM; in the experiment with NCI-H522 lung, 31.8 µM. The TGI in the experiment with TK-10 renal is 26.6 µM. Further, the values for the GI50 in the experiment on NCI-H522 lung and with TK-10 renal were 16.3 µM and 13.2 µM, respectively.
As to `N#CC(C#N)c1ccc(C(=O)N2CCC[C@H]2CO)cc1`, the TGI in the experiment on SK-MEL-28 melanoma, in the experiment with HL-60(TB) leukemia, in the experiment on NCI-H23 lung, in the experiment with MALME-3M melanoma, with HCC-2998 colon and in the experiment with OVCAR-3 ovarian was greater than 100 µM throughout. Further, the TGI in the experiment with NCI-H522 lung and with TK-10 renal was greater than 100 µM in each case.
As for `O=S(=O)(c1cccc(N=C=S)c1)c1cccc(N=C=S)c1`, the TGI with SK-MEL-28 melanoma is 33.6 µM; in the experiment on HL-60(TB) leukemia, 50 µM; in the experiment with NCI-H23 lung, 32.9 µM; in the experiment on MALME-3M melanoma, 34.9 µM; in the experiment on HCC-2998 colon, 46.7 µM; in the experiment with OVCAR-3 ovarian, 24 µM. Moreover, the figures for the TGI with NCI-H522 lung and with TK-10 renal were 32.8 µM and 40 µM, respectively.
As for `Cc1cc(C)nc(NS(=O)(=O)c2ccc(Nc3c4ccccc4nc4c(C(=O)Nc5ccc(S(=O)(=O)N=C(N)N)cc5)cccc34)cc2)n1`, the TGI with SK-MEL-28 melanoma, in the experiment with NCI-H23 lung, in the experiment on MALME-3M melanoma, in the experiment with HCC-2998 colon, in the experiment on OVCAR-3 ovarian and in the experiment with NCI-H522 lung was greater than 100 µM in each case. The same compound returned a TGI with TK-10 renal greater than 100 µM.
`O=C(O)/C=C/c1nc2ccccc2c(=O)o1`: the TGI in the experiment on SK-MEL-28 melanoma, in the experiment on HL-60(TB) leukemia, in the experiment on NCI-H23 lung, in the experiment with HCC-2998 colon, with OVCAR-3 ovarian and in the experiment on NCI-H522 lung was greater than 100 µM in each case. This compound also showed a TGI in the experiment on TK-10 renal greater than 100 µM.
For the compound `CCOC(=O)/C(C#N)=C(O)/C(=C\c1ccc(Br)cc1)NC(=O)c1ccccc1`, the TGI with SK-MEL-28 melanoma, in the experiment on HL-60(TB) leukemia, in the experiment with NCI-H23 lung, in the experiment on MALME-3M melanoma, with HCC-2998 colon and in the experiment on OVCAR-3 ovarian was greater than 100 µM in each case. The compound also displayed a TGI in the experiment with TK-10 renal greater than 100 µM.
As to `COCCNC(=O)C1C(=O)C(=O)N(CCOC)C1=O` (stereo not drawn), the TGI in the experiment on SK-MEL-28 melanoma, with SR leukemia, with NCI-H23 lung, with MALME-3M melanoma, in the experiment with HCC-2998 colon and in the experiment with OVCAR-3 ovarian was greater than 100 µM each time. Besides, the TGI in the experiment with NCI-H522 lung and in the experiment with TK-10 renal was greater than 100 µM each time.
In the case of `CC(C)=CC(=O)N(C)C1C2CN3CCC(O2)C13` (stereo not drawn), the TGI in the experiment on SK-MEL-28 melanoma, in the experiment on HL-60(TB) leukemia, in the experiment on NCI-H23 lung, in the experiment with MALME-3M melanoma, in the experiment on HCC-2998 colon and in the experiment with OVCAR-3 ovarian was greater than 100 µM in each case. Besides, the TGI with NCI-H522 lung and with TK-10 renal was greater than 100 µM throughout.
Regarding `O=S(=O)(/C=C/C(=C/c1ccccc1)S(=O)(=O)c1ccccc1)c1ccccc1`, the TGI in the experiment with SK-MEL-28 melanoma is 2.8 µM; in the experiment on SR leukemia, 4.41 µM; in the experiment on NCI-H23 lung, 3.56 µM; in the experiment with MALME-3M melanoma it was 3.3 µM; with HCC-2998 colon, 3.45 µM; with OVCAR-3 ovarian, 3.13 µM. Also, the TGI in the experiment with NCI-H522 lung was 2.85 µM; with TK-10 renal, 3.24 µM.
Turning to `CCCCCCCCCCCCC(Br)C(=O)NCC(N)=O` (stereo not drawn), the TGI in the experiment on SK-MEL-28 melanoma is 29.2 µM; in the experiment on HL-60(TB) leukemia, 31 µM; with NCI-H23 lung it was 14.7 µM; with MALME-3M melanoma, 28 µM; with HCC-2998 colon, 31 µM; in the experiment with OVCAR-3 ovarian it was 32.1 µM. For the same compound, the TGI in the experiment with NCI-H522 lung came out at 5.22 µM; in the experiment on TK-10 renal it was 34.7 µM.
As to `N#Cc1ccc(C=NC23CC4CC(CC(C4)C2)C3)cc1`, the TGI is greater than 100 µM in the experiment with SK-MEL-28 melanoma; 53 µM in the experiment on HL-60(TB) leukemia; greater than 100 µM with SR leukemia; greater than 100 µM with NCI-H23 lung; greater than 100 µM in the experiment with MALME-3M melanoma; greater than 100 µM in the experiment on HCC-2998 colon. The TGI with OVCAR-3 ovarian, with NCI-H522 lung and in the experiment with TK-10 renal was greater than 100 µM throughout.
Consider `Cc1ccc(NC(=O)CC2C(=O)Nc3ccccc3S2(=O)=O)c(C)c1` (stereo not drawn), for which the TGI in the experiment with SK-MEL-28 melanoma came to 41.1 µM; with HL-60(TB) leukemia, 14 µM; in the experiment with SR leukemia it was 19.1 µM; with NCI-H23 lung it was 37.2 µM; in the experiment with MALME-3M melanoma it was 45.9 µM; with HCC-2998 colon, 30.5 µM. Further, the TGI with OVCAR-3 ovarian was found to be 30.1 µM; in the experiment with NCI-H522 lung, 23.6 µM; in the experiment on TK-10 renal it was 55 µM.
For the compound `C=CNC(=O)NC(=O)CSc1nnc(-c2ccccc2NC(=O)C(F)(F)F)c(=O)[nH]1`, the TGI is greater than 100 µM with SK-MEL-28 melanoma; greater than 100 µM in the experiment on SR leukemia; greater than 100 µM with NCI-H23 lung; 28.8 µM in the experiment with MALME-3M melanoma; greater than 100 µM in the experiment with HCC-2998 colon; greater than 100 µM in the experiment on OVCAR-3 ovarian. Besides, the TGI in the experiment with NCI-H522 lung and with TK-10 renal was greater than 100 µM throughout.
`NC(=O)NNC(=O)NC12CC3CC(CC(C3)C1)C2`: the TGI in the experiment with SK-MEL-28 melanoma, in the experiment on HL-60(TB) leukemia, in the experiment with NCI-H23 lung, in the experiment with MALME-3M melanoma, in the experiment on HCC-2998 colon and in the experiment on OVCAR-3 ovarian was greater than 100 µM throughout. Besides, the TGI with NCI-H522 lung and in the experiment with TK-10 renal was greater than 100 µM each time.
In the case of `O=C(CC1SC(=Nc2ccccc2Cl)NC1=O)Nc1ccc(Cl)cc1Cl` (stereo not drawn), the TGI in the experiment with SK-MEL-28 melanoma, in the experiment with HL-60(TB) leukemia, with NCI-H23 lung, in the experiment with MALME-3M melanoma, in the experiment with HCC-2998 colon and with OVCAR-3 ovarian was greater than 100 µM in each case. Besides, the TGI in the experiment on TK-10 renal was greater than 100 µM.
